Results as given in patent publication US8871741B2, “Inhibition of TNF-α induced activation of NFKB by pentosan polysulfate” (Icahn School of Medicine at Mount Sinai, priority 2010, dated 2014).

Key:
[1] = test system: 22 month-old diabetic C57B6 mice; assay: Diabetic nephropathy in aged streptozotocin-diabetic C57B6 mice (albuminuria, renal histology, morphometry, serum chemistry); assay type: in vivo, mouse
Method: 4 and 16-17 month-old female C57B6 mice were obtained from National Institute on Aging and were injected with streptozotocin to induce diabetes. Mice were given 50 μg/g of streptozotocin in every three days, for a total of 5-8 injections. A total of 250-400 μg/g of streptozotocin was sufficient in most of mice to induce stable hyperglycemia (≧250 mg/dL). The streptozotocin dose required to establish stable diabetes was similar between […] and 4 month-old mice. There was less than 10% of mortality in both age groups of diabetic mice with this streptozotocin protocol. Dead mice were excluded from further study. Mice with stable diabetes at 5 or 18 months of age were selected for randomization. Female C57B6 mice were chosen as the onset and nature of renal lesions in aging was documented by the inventors herein These mice have irregular, lengthened estrous cycles around 10 to 14 months of age and the cycles usually cease at 18 months of age. […] 18 month-old diabetic mice were randomly divided into PPS treated (n=10, PPS 25 mg/kg/day in drinking water) and control (n=11) groups. No PPS treatment was given to 5 month-old diabetic mice. Both age groups of diabetic mice were followed for 4 months without insulin treatment. Body weight and blood glucose levels were monitored weekly. Urine albumin excretion was measured bi-weekly using an ELISA kit (Bethyl Laboratory Inc, Houston, Tex., USA), as previously described (Zheng F, et al. Am J Pathol 2003, 162:1339-1348). Urine creatinine levels were measured in the same samples and the urine albumin excretion rate was expressed as the ratio of albumin to creatinine Blood urea nitrogen (BUN) levels and serum creatinine levels were examined at sacrifice. High-performance liquid chromatography (HPLC) was applied for determining serum creatinine levels using the method described by Yuen et al. (Am J Physiol Renal Physiol 2004, 286:F1116-1119).
Mice were sacrificed 4 months after stable hyperglycemia was established. Kidneys were perfused with a saline solution and subsequently one kidney was perfusion-fixed in situ with 4% paraformaldehyde for histologic studies. The tissues were embedded in glycol methacrylate or low melting paraffin, and stained with periodic acid Schiff (PAS) and Masson's Trichrome. Tissues were also postfixed for 1 hour in 1.0% osmium tetroxide, prestained in 1.25% uranyl acetate for 1 hour, dehydrated through a series of graded alcohol solutions, and embedded in EPON epoxy resin for electron microscopy. The glomerular volume and mesangial area were determined by examining plastic embedded sections using a digitizing tablet and video camera. The relative mesangial area was expressed as mesangial/glomerular surface area. Glomerular cell number was determined by counting the nuclear number in at least 30 glomeruli of each section. The glomerular basement membrane thickness was measured by the orthogonal intercept method on electron microscopic images. To determine the number of glomerular fenestrae, the length of was fenestrated or unfenestrated glomerular capillary endothelial cytoplasm was measured. Fenestrated endothelial cell cytoplasm was generally thin whereas the thickness of the unfenestrated endothelial cell cytoplasm was twice or more increased. Tubulointerstitial lesions were scored from 0 to 4 (0, no changes; 1+, changes affecting <25% of the sample; 2+, changes affecting 25 to 50% of the sample; 3+, changes affecting 50 to 75% of the sample; 4+, changes affecting 75 to 100% of the sample) based on tubular atrophy, increase in the thickness of basement membranes and interstitial area, and clusters of inflammatory cells.

[2] = test system: Watanabe heritable hypercholesterolemic rabbits (WHHL); assay: Progression of established atherosclerosis in WHHL rabbits, morphologic analysis of aorta; assay type: in vivo, rabbit
Method: The degree of aortic atherosclerosis was evaluated by measuring the percent lesion area on the surface of the whole intimal (surface area of lesion/surface area of the whole intima) in the region between the aortic arch and the emergence of the renal arteries. Moreover, serial cross-sectional tissue samples (≈3 mm in length) taken from the aortic arch to the […] were post-fixed in paraformaldehyde (4% wt/vol.) and processed for histological analysis. The specimens were then embedded in paraffin, and 4-μm-thick sections were stained with hematoxylin and eosin (H&E). The ratio of intima to media (I/M ratio) was measured by computer-aided morphometric analysis in three consecutive cross-sectional sections of the aortic arch and the abdominal aorta, near the origin of the renal arteries, as described (Shindo J, et al., Circulation 1999; 99: 2150-2156). To avoid errors due to the heterogeneity of atherosclerotic lesions, the cross sections containing the thickest atherosclerotic lesions were selected individually from the aortic arch and used for the analysis of the cross-sectional areas of atherosclerotic lesions (Shindo J, et al., Circulation 1999; 99: 2150-2156). Percentage of the area occupied by macrophages and collagen were measured by computer-aided morphometric analysis on aortic cross sections stained immunohistochemically with RAM-11 antibody (DAKO Corp.) or Sirius red, respectively.

[3] = test system: hepatic lipase; assay: Post-heparin hepatic lipase activity in WHHL rabbits; assay type: in vivo, rabbit; settings: end of treatment period
Method: Blood was drawn from rabbits after a 12-hour fast into tubes containing EDTA at the beginning of the study, every two weeks during treatment with the atherogenic diet, and at the end of the study. The total cholesterol and triglyceride concentrations (Sigma) as well as unesterified cholesterol and phospholipids (Wako Chemicals, Richmond, Va.) were determined on plasma samples using enzymatic methods on a Hitachi 911 Autoanalyzer (Boehringer Mannheim). Post-heparin hepatic lipase activity was determined as described (Iverius P H, Brunzell J D. Am J Physiol 1985; 249: E107-E114).

[4] = test system: MMP-2 and MMP-9; assay: Zymography of supernatants of human peripheral blood-derived macrophages; assay type: cell-based; settings: TNF-α stimulated human peripheral blood-derived macrophages, 100 μg/ml PPS
Method: Human peripheral blood monocytes were isolated as previously described (Valone F H, Epstein L B. J Immunol. 1988; 141: 3945-3950), and maintained in medium 199 supplemented with 2% human serum for in vitro differentiation into macrophages (Camussi G, et al., J Exp Med. 1987; 166: 1390-1404).
MMP activity in aortic extracts and conditioned media from monocytes was assessed, as previously described (Jacot T A, et al., Lab Invest. 1996; 75:791-79). Briefly, aortic segments were homogenized and extracted in RIPA buffer (25 mM Tris, pH 7.4, 150 mM KCl, 5 mM EDTA, 1% Nonidet P-40, 0.5% sodium deoxycholate, and 0.1% SDS). Insoluble material was precipitated by centrifugation, and soluble extracts were collected and stored at −20° C. for further analysis. For in vitro experiments, cell supernatants were centrifuged to remove cellular debris, and diluted appropriately to normalize for cell number. Aortic extracts and conditioned media were then mixed with sample buffer (1% SDS, 0.08 M Tris pH 6.8, 4% glycerol, and 0.006% bromophenol blue), and loaded onto a 10% gelatin polyacrylamide gel, and processed as described (Jacot T A, et al., Lab Invest. 1996; 75:791-79). For reverse zymography, samples were loaded onto a 15% gelatin polyacrylamide gel containing 0.5% porcine gelatin and 6 μg recombinant gelatinase A, and processed as described (Elliot S J, et al., J Am Soc Nephrol. 1999; 10: 62-68).

[5] = 22 month-old diabetic mice treated with PPS, n = 10, at sacrifice, mean±SD
[6] = 22 month-old diabetic mice, PPS 25 mg/kg/day in drinking water, 4 months
[7] = morphometric analysis, PPS treated versus untreated 22 month-old diabetic mice

pentosan polysulfate [PPS]
BUN [1, 5]: 21.3 ± 5.6 mg/dL | Scr (serum creatinine) [1, 5]: 0.118 ± 0.02 mg/dL | reduction in tubulointerstitial lesions [1, 6]: ~80% | reduction of the increase in the albumin excretion rate [1, 6]: about 50% | reduction of glomerular endothelial fenestrations ([1]; morphometric analysis, PPS treated 22 month-old diabetic mice): largely prevented | glomerular basement membrane width [1, 7]: decreased | mesangial area [1, 7]: decreased | intima/media ratio (I/M) compared to WHHL rabbits fed a HC-diet for 45 days ([2]; HC-diet 45 days, then oral PPS for an additional 30 days): not significantly different | area containing macrophages, relative to the total plaque area ([2]; RAM-11 staining, aortic cross sections, 75 days HC-diet, PPS last 30 days, mean±SEM): 35.56±1.51% | percent surface area of the intima occupied by lesions, reduction compared to water-treated controls ([2]; WHHL rabbits, HC-diet 75 days, PPS 30 mg/kg BW daily in drinking water for the last 30 days): approximately one-third | intima/media ratio (I/M) compared to water-treated controls ([2]; aortic arch and abdominal aorta, 75 days HC-diet, oral PPS for the last 30 days): significantly lower | Sirius red staining (collagen) in plaques ([2]; aortic arch sections, 75 days HC-diet, PPS last 30 days, mean±SEM): 47.43±2.93% | activity of post-heparin hepatic lipase, PPS- versus water-treated [3]: no differences | effect on MMP production [4]: inhibitory effect
